Assay results from patent US4216324A, “1-Difluoromethyl-6,7-methylenedioxy-1,4-dihyd ro-4-oxo-3-quinolinecarboxylic acid” (E. I. Du Pont de Nemours and Company, priority 1978, dated 1980).
Where two headings read alike, the source gives them in different places.

Experiments:
[1] = General pharmacology screen in rats; settings: in vivo, rat
Pseud. aeruginosa = assay: In vitro minimum inhibitory concentration (MIC), tube dilution test; format: cell-based; settings: Pseudomonas aeruginosa, 20 h, brain-heart infusion broth, 20hour incubation at 37° C., read-out: Minimal Inhibitory Test Conens. (MIC)
E. coli = assay: as above; format: cell-based; settings: Escherichia coli, 20 h, brain-heart infusion broth, 20hour incubation at 37° C., read-out: Minimal Inhibitory Test Conens. (MIC)
Procedure: (§1) A. In vitro: mimimum inhibitory concentration (MIC)
(§2) The compound was tested in a standard bacteriological tube dilution test for MIC for a variety of bacteria. Stock cultures of the bacteria listed in Table 1 were grown in bacterial culture media at 37° C. overnight and diluted in culture tubes to a previously determined concentration proper for the test. The compound was added to result in final concentrations of 10, 2, 0.4 and 0.08 μg/ml. These were incubated for 18 hours at 37° C. and then observed to determine if growth of bacteria had occurred. The lowest concentration of the compound that inhibited bacterial growth in the MIC.
(§3) *brain-heart infusion broth, 20hour incubation at 37° C.

Sal. choleraesuis = assay: as above; format: cell-based; settings: Salmonella enterica, 20 h, read-out: Minimal Inhibitory Test Conens. (MIC)
Procedure: as §1, §2, §3

Bac. subtilis = assay: as above; format: cell-based; settings: Bacillus subtilis; Bac. subtilis (07A); brain-heart infusion broth, 20hour incubation at 37° C.; read-out: Minimal Inhibitory Test Conens. (MIC)
Procedure: as §1, §2, §3

Staph. aureus = assay: as above; format: cell-based; settings: Staphylococcus aureus; Staph. aureus (08F); brain-heart infusion broth, 20hour incubation at 37° C.; read-out: Minimal Inhibitory Test Conens. (MIC)
Procedure: as §1, §2, §3

Proteus vulgaris = assay: as above; format: cell-based; settings: Proteus vulgaris (14P); brain-heart infusion broth, 20hour incubation at 37° C.; read-out: Minimal Inhibitory Test Conens. (MIC)
Procedure: as §1, §2, §3

Sal. gallinarum = assay: as above; format: cell-based; settings: Salmonella enterica, 20 h, brain-heart infusion broth, 20hour incubation at 37° C., read-out: Minimal Inhibitory Test Conens. (MIC)
Procedure: as §1, §2, §3

Strep. pyogenes = assay: as above; format: cell-based; settings: Streptococcus pyogenes; Strep. pyogenes (10V); brain-heart infusion broth, 20hour incubation at 37° C.; read-out: Minimal Inhibitory Test Conens. (MIC)
Procedure: as §1, §2, §3

Sal. typhimurium = assay: as above; format: cell-based; settings: Salmonella enterica, 20 h, brain-heart infusion broth, 20hour incubation at 37° C., read-out: Minimal Inhibitory Test Conens. (MIC)
Procedure: as §1, §2, §3

Aero. cloacae = assay: as above; format: cell-based; settings: Enterobacter cloacae; Aero. cloacae (39A); brain-heart infusion broth, 20hour incubation at 37° C.; read-out: Minimal Inhibitory Test Conens. (MIC)
Procedure: as §1, §2, §3

Ser. marcescens = assay: as above; format: cell-based; settings: Serratia marcescens; Ser. marcescens (22); brain-heart infusion broth, 20hour incubation at 37° C.; read-out: Minimal Inhibitory Test Conens. (MIC)
Procedure: as §1, §2, §3

Kleb. aerobacter = assay: as above; format: cell-based; settings: Kleb. aerobacter (20F); brain-heart infusion broth, 20hour incubation at 37° C.; read-out: Minimal Inhibitory Test Conens. (MIC)
Procedure: as §1, §2, §3

Sal. typhi = assay: as above; format: cell-based; settings: brain-heart infusion broth, 20hour incubation at 37° C.; for MIC: Salmonella enterica
Procedure: as §1, §2, §3

Proteus sp. = assay: as above; format: cell-based; settings: brain-heart infusion broth, 20hour incubation at 37° C., read-out: Minimal Inhibitory Test Conens. (MIC)
Procedure: as §1, §2, §3

Shiq. dysenteriae = assay: as above; format: cell-based; settings: 20 h, read-out: Minimal Inhibitory Test Conens. (MIC)
Procedure: as §1, §2, §3

[2] = oral, doses given in mg./kg, read-out: ED50 24-Hour Mort.
[3] = po, doses given in mg./kg, read-out: ED50 Ataxia
[4] = po, doses given in mg./kg, read-out: ED50 Excitation
[5] = po, doses given in mg./kg, read-out: ED50 Irritability
[6] = po, rectal temperature, doses given in mg./kg, read-out: ED50 Hypertherm.
[7] = po, rectal temperature, doses given in mg./kg, read-out: ED50 Hypotherm.
[8] = po, vertical bar loss, doses given in mg./kg, read-out: ED50 Vert. Bar
[9] = TYPHI, 20 h, read-out: Minimal Inhibitory Test Conens. (MIC), Sal. typhi (02A)
[10] = TYPHI, 20 h, read-out: Minimal Inhibitory Test Conens. (MIC), Sal. typhi (02B)

CCn1cc(C(=O)O)c(=O)c2cc3c(cc21)OCO3 [Oxolinic Acid, oxolinic acid]
< 0.08 µg/mL: MIC (E. coli; E. coli (06-2M)) | MIC (Sal. choleraesuis) | MIC (Bac. subtilis) | MIC (Strep. pyogenes) | MIC (Sal. typhimurium; Sal. typhimurium (03K)) | MIC (Aero. cloacae) | MIC (Proteus sp.)
97 mg/kg: TD50 [1, 3]
0.4 µg/mL: MIC (E. coli; E. coli (06-2F)) | MIC (E. coli; E. coli (06J)) | MIC (E. coli; E. coli (06K)) | MIC (E. coli; E. coli (06L)) | MIC (E. coli; E. coli (06M)) | MIC (E. coli; E. coli (06V)) | MIC (Staph. aureus) | MIC (Sal. gallinarum; Sal. gallinarum (04D)) | MIC (Sal. typhimurium; Sal. typhimurium (03A)) | MIC (Sal. typhimurium; Sal. typhimurium (03C)) | MIC (Ser. marcescens) | Minimal Inhibitory Test Conens. (MIC) (Sal. typhi; Sal. typhi (02B)) | MIC (Sal. typhi; Sal. typhi (02A), read-out: Minimal Inhibitory Test Conens. (MIC)) | MIC (Shiq. dysenteriae)
10 µg/mL: MIC (Pseud. aeruginosa; Pseud. aeruginosa (11D)) | MIC (Pseud. aeruginosa; Pseud. aeruginosa (11G)) | MIC (E. coli; E. coli (06-2L)) | MIC (E. coli; E. coli (06I))
187 mg/kg: TD50 [1, 8]
> 10 µg/mL: MIC (Kleb. aerobacter)
62 mg/kg: TD50 [1, 4]
121 mg/kg: TD50 [1, 6]
> 324 mg/kg: LD50 at 24 h [1, 2] | TD50 [1, 5] | TD50 [1, 7]
2 µg/mL: MIC (Pseud. aeruginosa; Pseud. aeruginosa (11B)) | MIC (Pseud. aeruginosa; Pseud. aeruginosa (11C)) | MIC (Pseud. aeruginosa; Pseud. aeruginosa (11I)) | MIC (Pseud. aeruginosa; Pseud. aeruginosa (11J)) | MIC (E. coli; E. coli (06-2B)) | MIC (E. coli; E. coli (06C)) | MIC (E. coli; E. coli (06S)) | MIC (E. coli; E. coli (06X)) | MIC (E. coli; E.coli (06-2D)) | MIC (Proteus vulgaris) | MIC (Sal. gallinarum; Sal. gallinarum (04C))

CCn1cc(C(=O)O)c(=O)c2ccc(C)nc21 [Nalidixic Acid, nalidixic acid]
10 µg/mL: MIC (E. coli; E. coli (06K)) | MIC (E. coli; E. coli (06L)) | MIC (E. coli; E. coli (06M)) | MIC (E. coli; E. coli (06S)) | MIC (E. coli; E. coli (06X)) | MIC (E. coli; E.coli (06-2D)) | MIC (Sal. gallinarum; Sal. gallinarum (04D)) | MIC (Strep. pyogenes) | MIC (Sal. typhi; [9])
0.4 µg/mL: MIC (Bac. subtilis)
360 mg/kg: TD50 [1, 8]
> 10 µg/mL: MIC (Pseud. aeruginosa; Pseud. aeruginosa (11B)) | MIC (Pseud. aeruginosa; Pseud. aeruginosa (11C)) | MIC (Pseud. aeruginosa; Pseud. aeruginosa (11D)) | MIC (Pseud. aeruginosa; Pseud. aeruginosa (11G)) | MIC (Pseud. aeruginosa; Pseud. aeruginosa (11I)) | MIC (Pseud. aeruginosa; Pseud. aeruginosa (11J)) | MIC (E. coli; E. coli (06-2B)) | MIC (E. coli; E. coli (06-2L)) | MIC (E. coli; E. coli (06C)) | MIC (E. coli; E. coli (06I)) | MIC (Proteus vulgaris) | MIC (Sal. gallinarum; Sal. gallinarum (04C)) | MIC (Kleb. aerobacter) | MIC (Shiq. dysenteriae)
2 µg/mL: MIC (E. coli; E. coli (06-2F)) | MIC (E. coli; E. coli (06-2M)) | MIC (E. coli; E. coli (06J)) | MIC (E. coli; E. coli (06V)) | MIC (Sal. choleraesuis) | MIC (Staph. aureus) | MIC (Sal. typhimurium; Sal. typhimurium (03A)) | MIC (Sal. typhimurium; Sal. typhimurium (03C)) | MIC (Sal. typhimurium; Sal. typhimurium (03K)) | MIC (Aero. cloacae) | MIC (Ser. marcescens) | MIC (Sal. typhi; [10]) | MIC (Proteus sp.)
187 mg/kg: TD50 [1, 3]
> 324 mg/kg: LD50 at 24 h [1, 2] | TD50 [1, 4] | TD50 [1, 5] | TD50 [1, 6] | TD50 [1, 7]

O=C(O)c1cn(C(F)F)c2cc3c(cc2c1=O)OCO3 [DFMQ, 1-difluoromethyl-6,7-methylenedioxy-1,4-dihydro-4-oxo-3-quinolinecarboxylic acid]
< 0.08 µg/mL: MIC (E. coli; E. coli (06-2M)) | MIC (Sal. choleraesuis) | MIC (Bac. subtilis) | MIC (Strep. pyogenes) | MIC (Sal. typhimurium; Sal. typhimurium (03K)) | MIC (Aero. cloacae) | MIC (Proteus sp.)
> 324 mg/kg: LD50 at 24 h ([1]; po) | TD50 [1, 3] | TD50 [1, 4] | TD50 [1, 5] | TD50 [1, 6] | TD50 [1, 7] | TD50 [1, 8]
0.4 µg/mL: MIC (E. coli; E. coli (06-2F)) | MIC (E. coli; E. coli (06J)) | MIC (E. coli; E. coli (06K)) | MIC (E. coli; E. coli (06L)) | MIC (E. coli; E. coli (06M)) | MIC (E. coli; E. coli (06S)) | MIC (E. coli; E. coli (06V)) | MIC (Staph. aureus) | MIC (Sal. gallinarum; Sal. gallinarum (04D)) | MIC (Sal. typhimurium; Sal. typhimurium (03A)) | MIC (Sal. typhimurium; Sal. typhimurium (03C)) | MIC (Ser. marcescens) | MIC (Sal. typhi; [10]) | MIC (Shiq. dysenteriae)
10 µg/mL: MIC (Pseud. aeruginosa; Pseud. aeruginosa (11B)) | MIC (Pseud. aeruginosa; Pseud. aeruginosa (11D)) | MIC (Pseud. aeruginosa; Pseud. aeruginosa (11G)) | MIC (Pseud. aeruginosa; Pseud. aeruginosa (11J)) | MIC (E. coli; E. coli (06-2L)) | MIC (E. coli; E. coli (06I))
2 µg/mL: MIC (Pseud. aeruginosa; Pseud. aeruginosa (11C)) | MIC (Pseud. aeruginosa; Pseud. aeruginosa (11I)) | MIC (E. coli; E. coli (06-2B)) | MIC (E. coli; E. coli (06C)) | MIC (E. coli; E. coli (06X)) | MIC (E. coli; E.coli (06-2D)) | MIC (Proteus vulgaris) | MIC (Sal. gallinarum; Sal. gallinarum (04C)) | MIC (Kleb. aerobacter) | MIC (Sal. typhi; [9])
